In US6734292B1, “Pseudoerythromycin derivatives” (The Kitasato Institute, priority 2002, dated 2004):

Tested on: THP-1 cells
Test: enhancing effect for differentiation-induction from human monocyte to macrophage (THP-1/Mφ system, MTT readout)
Assay type: cell-based
Parameters: key: ++: enhanced 100% or more; +: enhanced 50-100%; ±: enhanced 25-50%; −: no activity; /: expressed cytoxicity; NT: not tested or under assessment
Details: in comparison with enhancing action for differentiation-induction of EM 100 μM
Procedure: In order to confirm enhancing effect for differentiation-induction of the compounds of the present invention, the enhancing effect for differentiation-induction from human monocyte to macrophage was assayed. Method is performed as follows. THP-1 cells were collected from cultured liquid by centrifugation, adjusted the concentration to 2×10^5 cells/ml using medium (RPMI 1640) and distributed into the 48-well plate at 500 μl/well. PMA solution 10 μl and sample solution 5 μl were added in each well, stirred with mild shaking and incubated at 37° C. for 72-96 hours under 5% CO2. Further MTT 0.5 mg/ml solution was added at 300 μl/well, and incubated at 37° C. for 3 hours under 5% CO2. Supernatant solution was suctioned using the injection tube, added DMSO 500 μl using automatic continuous injector to dissolve formazan completely and transferred each 100 μl to the 96-well plate. The optical absorption was measured using the plate-reader.

CCC(O)C(C)(O)C1OC(=O)C(C)C(OC2CC(C)(OC)C(O)C(C)O2)C(C)C(OC2OC(C)CC(N(C)S(C)(=O)=O)C2O)C2(C)CC(C)=C(O2)C1C (centres unmarked) [EM727, de(3′-N-methyl)-3′-N-sulfonyl-8,9-anhydro-pseudoerythromycin A 6,9-hemiketal]
activities in THP-1/Mφ system, Treated conc. 0.3 μM: − | activities in THP-1/Mφ system, Treated conc. 1 μM: + (enhanced 50-100%) | activities in THP-1/Mφ system, Treated conc. 3 μM: + (enhanced 50-100%) | activities in THP-1/Mφ system, Treated conc. 10 μM: + (enhanced 50-100%)

C#CCNC1CC(C)OC(OC2C(C)C(OC3CC(C)(OC)C(O)C(C)O3)C(C)C(=O)OC(C(C)(O)C(O)CC)C(C)C3=C(C)CC2(C)O3)C1O (centres unmarked) [EM728, bis-de(3′-N-methyl)-3′-N-propargyl-8,9-anhydro-pseudoerythromycin A 6,9-hemiketal]
activities in THP-1/Mφ system, Treated conc. 0.3 μM: − | activities in THP-1/Mφ system, Treated conc. 1 μM: + (enhanced 50-100%) | activities in THP-1/Mφ system, Treated conc. 3 μM: + (enhanced 50-100%) | activities in THP-1/Mφ system, Treated conc. 10 μM: + (enhanced 50-100%) | activities in THP-1/Mφ system, Treated conc. 30 μM: + (enhanced 50-100%)

C#CCN(CC#C)C1CC(C)OC(OC2C(C)C(OC3CC(C)(OC)C(O)C(C)O3)C(C)C(=O)OC(C(C)(O)C(O)CC)C(C)C3=C(C)CC2(C)O3)C1O (centres unmarked) [EM729, bis-de(3′-N-methyl)-3′,3′-N,N-di-propargyl-8,9-anhydro-pseudoerythromycin A 6,9-hemiketal]
activities in THP-1/Mφ system, Treated conc. 0.3 μM: − | activities in THP-1/Mφ system, Treated conc. 1 μM: ± (enhanced 25-50%) | activities in THP-1/Mφ system, Treated conc. 3 μM: ± (enhanced 25-50%) | activities in THP-1/Mφ system, Treated conc. 10 μM: ± (enhanced 25-50%)

CCCNC1CC(C)OC(OC2C(C)C(OC3CC(C)(OC)C(O)C(C)O3)C(C)C(=O)OC(C(C)(O)C(O)CC)C(C)C3=C(C)CC2(C)O3)C1O (centres unmarked) [EM730, bis-de(3′-N-methyl)-3′-N-propyl-8,9-anhydro-pseudoerythromycin A 6,9-hemiketal]
activities in THP-1/Mφ system, Treated conc. 0.3 μM: + (enhanced 50-100%) | activities in THP-1/Mφ system, Treated conc. 1 μM: + (enhanced 50-100%) | activities in THP-1/Mφ system, Treated conc. 3 μM: + (enhanced 50-100%)

CCCN(CCC)C1CC(C)OC(OC2C(C)C(OC3CC(C)(OC)C(O)C(C)O3)C(C)C(=O)OC(C(C)(O)C(O)CC)C(C)C3=C(C)CC2(C)O3)C1O (centres unmarked) [EM731, bis-de(3′-N-methyl)-3′,3′-N,N-di-propyl-8,9anhydro-pseudoerythromycin A 6,9-hemiketal]
activities in THP-1/Mφ system, Treated conc. 0.3 μM: − | activities in THP-1/Mφ system, Treated conc. 1 μM: − | activities in THP-1/Mφ system, Treated conc. 3 μM: + (enhanced 50-100%)

CCC(O)C(C)(O)C1OC(=O)C(C)C(OC2CC(C)(OC)C(O)C(C)O2)C(C)C(OC2OC(C)CC(NCc3ccccc3)C2O)C2(C)CC(C)=C(O2)C1C (centres unmarked) [EM732, bis-de(3′-N-methyl)-3′-N-benzyl-8,9-anhydro-pseudoerythromycin A 6,9-hemiketal]
activities in THP-1/Mφ system, Treated conc. 0.3 μM: + (enhanced 50-100%) | activities in THP-1/Mφ system, Treated conc. 1 μM: + (enhanced 50-100%) | activities in THP-1/Mφ system, Treated conc. 3 μM: + (enhanced 50-100%) | activities in THP-1/Mφ system, Treated conc. 10 μM: + (enhanced 50-100%)

CCC(O)C(C)(O)C1OC(=O)C(C)C(OC2CC(C)(OC)C(O)C(C)O2)C(C)C(OC2OC(C)CC(N(Cc3ccccc3)Cc3ccccc3)C2O)C2(C)CC(C)=C(O2)C1C (centres unmarked) [EM733, bis-de(3′-N-methyl)-3′,3′-N,N-di-benzyl-8,9-anhydro-pseudoerythromycin A 6,9-hemiketal]
activities in THP-1/Mφ system, Treated conc. 0.3 μM: − | activities in THP-1/Mφ system, Treated conc. 1 μM: ± (enhanced 25-50%) | activities in THP-1/Mφ system, Treated conc. 3 μM: ± (enhanced 25-50%)

CCC(O)C(C)(O)C1OC(=O)C(C)C(OC2CC(C)(OC)C(O)C(C)O2)C(C)C(OC2OC(C)CC(N3CCCC3)C2O)C2(C)CC(C)=C(O2)C1C (centres unmarked) [EM735, de(3′-dimethylamino)-3′-pyrrolidino-8,9-anhydro-pseudoerythromycin A 6,9-hemiketal]
activities in THP-1/Mφ system, Treated conc. 0.3 μM: − | activities in THP-1/Mφ system, Treated conc. 1 μM: ± (enhanced 25-50%) | activities in THP-1/Mφ system, Treated conc. 3 μM: + (enhanced 50-100%) | activities in THP-1/Mφ system, Treated conc. 10 μM: ++ (enhanced 100% or more)

CC[C@@H](O)[C@@](C)(O)[C@@H]1OC(=O)[C@H](C)[C@@H](O[C@H]2C[C@@](C)(OC)[C@@H](O)[C@H](C)O2)[C@H](C)[C@@H](O[C@@H]2O[C@H](C)C[C@H](NC(C)C)[C@H]2O)[C@@]2(C)CC(C)=C(O2)[C@@H]1C [EM736, bis-de(3′-N-methyl)-3′-N-(2-propyl)-8,9-anhydro-pseudoerythromycin A 6,9-hemiketal]
activities in THP-1/Mφ system, Treated conc. 0.3 μM: − | activities in THP-1/Mφ system, Treated conc. 1 μM: ± (enhanced 25-50%) | activities in THP-1/Mφ system, Treated conc. 3 μM: + (enhanced 50-100%) | activities in THP-1/Mφ system, Treated conc. 10 μM: ++ (enhanced 100% or more)

CCC(O)C(C)(O)C1OC(=O)C(C)C(O)C(C)C(OC2OC(C)CC(N(C)C)C2O)C2(C)CC(C)=C(O2)C1C (centres unmarked) [EM737, de(3-O-cladinosyl)-8,9-anhydro-pseudo erythromycin A 6,9-hemiketal]
activities in THP-1/Mφ system, Treated conc. 3 μM: − | activities in THP-1/Mφ system, Treated conc. 10 μM: + (enhanced 50-100%)

CCC(O)C(C)(O)C1OC(=O)C(C)C(OC2CC(C)(OC)C(O)C(C)O2)C(C)C(OC2OC(C)CC(N(C)CCF)C2O)C2(C)CC(C)=C(O2)C1C (centres unmarked) [EM740]
activities in THP-1/Mφ system, Treated conc. 0.3 μM: ± (enhanced 25-50%) | activities in THP-1/Mφ system, Treated conc. 1 μM: ± (enhanced 25-50%) | activities in THP-1/Mφ system, Treated conc. 3 μM: + (enhanced 50-100%) | activities in THP-1/Mφ system, Treated conc. 10 μM: + (enhanced 50-100%) | activities in THP-1/Mφ system, Treated conc. 30 μM: + (enhanced 50-100%)

CCC(O)C(C)(O)C1OC(=O)C(C)C(OC2CC(C)(OC)C(O)C(C)O2)C(C)C(OC2OC(C)CC(N(C)CC#N)C2O)C2(C)CC(C)=C(O2)C1C (centres unmarked) [EM742, de(3′-N-methyl)-3′-cyanomethyl-8,9-anhydro-pseudoerythromycin A 6,9-hemiketal]
activities in THP-1/Mφ system, Treated conc. 0.3 μM: − | activities in THP-1/Mφ system, Treated conc. 1 μM: − | activities in THP-1/Mφ system, Treated conc. 3 μM: − | activities in THP-1/Mφ system, Treated conc. 10 μM: + (enhanced 50-100%) | activities in THP-1/Mφ system, Treated conc. 30 μM: + (enhanced 50-100%)

COC1(C)CC(OC2C(C)C(=O)OC(C(C)=NO)C(C)C3=C(C)CC(C)(O3)C(OC3OC(C)CC(N(C)C)C3O)C2C)OC(C)C1O (centres unmarked) [EM743, de(12-hydroxy)-de[12-(1-hydroxypropyl)]-12-hydroxyoxime-8,9-anhydro-pseudoerythromycin A 6,9-hemiketal]
activities in THP-1/Mφ system, Treated conc. 1 μM: − | activities in THP-1/Mφ system, Treated conc. 3 μM: ± (enhanced 25-50%) | activities in THP-1/Mφ system, Treated conc. 10 μM: −

CC[C@@H](O)[C@@](C)(O)[C@@H]1OC(=O)[C@H](C)[C@@H](O[C@H]2C[C@@](C)(OC)[C@@H](O)[C@H](C)O2)[C@H](C)[C@@H](O[C@@H]2O[C@H](C)C[C@H](N(C)CCCO)[C@H]2O)[C@@]2(C)CC(C)=C(O2)[C@@H]1C [EM744]
activities in THP-1/Mφ system, Treated conc. 1 μM: − | activities in THP-1/Mφ system, Treated conc. 3 μM: − | activities in THP-1/Mφ system, Treated conc. 10 μM: −

CC[C@@H](O)[C@@](C)(O)[C@@H]1OC(=O)[C@H](C)[C@@H](O[C@H]2C[C@@](C)(OC)[C@@H](O)[C@H](C)O2)[C@H](C)[C@@H](O[C@@H]2O[C@H](C)C[C@H](N(C)CCOC(C)=O)[C@H]2O)[C@@]2(C)CC(C)=C(O2)[C@@H]1C [EM745, de(3′-N-methyl)-3′-N-(2-acetoxyethyl)-8,9-anhydro-pseudoerythromycin A 6,9-hemiketal]
activities in THP-1/Mφ system, Treated conc. 0.3 μM: − | activities in THP-1/Mφ system, Treated conc. 1 μM: − | activities in THP-1/Mφ system, Treated conc. 3 μM: ++ (enhanced 100% or more) | activities in THP-1/Mφ system, Treated conc. 10 μM: ++ (enhanced 100% or more) | activities in THP-1/Mφ system, Treated conc. 30 μM: ++ (enhanced 100% or more)

COC1(C)CC(OC2C(C)C(=O)OC(C(C)O)C(C)C3=C(C)CC(C)(O3)C(OC3OC(C)CC(N(C)C)C3O)C2C)OC(C)C1O (centres unmarked) [EM746, de[12-(hydroxypropyl)]-8,9-anhydro-pseudo erythromycin A 6,9-hemiketal]
activities in THP-1/Mφ system, Treated conc. 0.3 μM: − | activities in THP-1/Mφ system, Treated conc. 1 μM: ± (enhanced 25-50%) | activities in THP-1/Mφ system, Treated conc. 3 μM: + (enhanced 50-100%) | activities in THP-1/Mφ system, Treated conc. 10 μM: + (enhanced 50-100%) | activities in THP-1/Mφ system, Treated conc. 30 μM: + (enhanced 50-100%)
